Experiments:
rice = experiment: Test B flooded paddy test; assay type: in vivo, Oryza sativa; conditions: Flood, scale of 0 to 100 where 0 is no effect and 100 is complete control
In short: (§1)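 Scoring: visual, compared with untreated controls, 0 = no effect through 100 = complete control, taken 13 to 15 days after treatment in the greenhouse. Compounds had been added to paddy water over soil flooded 3 cm deep at the plants' 2-leaf stage.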

corn = experiment: Test A pre-/postemergence herbicide test; assay type: in vivo, Zea mays; conditions: Postemergence; for Plant response rating, Corn: 125 g ai/ha, 0 to 100 scale, 0 is no effect, 100 is complete control; for Corn plant response rating (0 to 100 scale, 0 is no effect, 100 is complete control): 500 g ai/ha
In short: (§2)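 Both application timings used compounds in a non-phytotoxic solvent plus surfactant. Pre-emergence: soil sprayed directly after seeding into loam/sand. Post-emergence: foliage of 2–10 cm seedlings (1–2 leaves) sprayed. Injury rated ~10 days later, 0–100.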

ducksalad = experiment: Test B flooded paddy test; assay type: in vivo, Heteranthera limosa; conditions: Flood, scale of 0 to 100 where 0 is no effect and 100 is complete control
In short: as §1

kochia = experiment: Test A pre-/postemergence herbicide test; assay type: in vivo, Kochia scoparia; conditions: for Plant response rating, Kochia: 0 to 100 scale
In short: as §2

galium = experiment: Test A postemergence herbicide test; assay type: in vivo, Galium aparine; conditions: for Plant response rating, Galium: 125 g ai/ha, 0 to 100 scale, 0 is no effect, 100 is complete control; for Galium plant response rating (0 to 100 scale, 0 is no effect, 100 is complete control): 500 g ai/ha
In short: (§3)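 Injury was rated visually about 10 days after treatment on a 0 (no effect) to 100 (complete control) scale, compared with untreated plants. Test chemicals were sprayed postemergence onto greenhouse plants 2–10 cm high at one to two leaves, grown in a loam–sand blend.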

sedge, umbrella = experiment: Test B flooded paddy test; assay type: in vivo, Cyperus difformis; conditions: Flood, scale of 0 to 100 where 0 is no effect and 100 is complete control
In short: as §1

ragweed = experiment: Test A pre-/postemergence herbicide test; assay type: in vivo, Ambrosia elatior; conditions: for Plant response rating, Ragweed: 0 to 100 scale
In short: as §2

giant foxtail = experiment: Test A pre-/postemergence herbicide test; assay type: in vivo, Setaria faberii; conditions: for Plant response rating, Foxtail, Giant: 0 to 100 scale
In short: as §2

wheat = experiment: Test A pre-/postemergence herbicide test; assay type: in vivo, Triticum aestivum; conditions: Postemergence; for Plant response rating, Wheat: 125 g ai/ha, 0 to 100 scale, 0 is no effect, 100 is complete control; for Wheat plant response rating (0 to 100 scale, 0 is no effect, 100 is complete control): 500 g ai/ha
In short: as §2

barnyardgrass [1] = experiment: Test B flooded paddy test; assay type: in vivo, Echinochloa crus-galli; conditions: Flood, scale of 0 to 100 where 0 is no effect and 100 is complete control
In short: as §1

ryegrass, Italian = experiment: Test A pre-/postemergence herbicide test; assay type: in vivo, Lolium multiflorum; conditions: for Plant response rating, Ryegrass, Italian: 0 to 100 scale
In short: as §2

pigweed = experiment: Test A pre-/postemergence herbicide test; assay type: in vivo, Amaranthus retroflexus; conditions: for Plant response rating, Pigweed: 0 to 100 scale
In short: as §2

blackgrass = experiment: Test A postemergence herbicide test; assay type: in vivo, Alopecurus myosuroides; conditions: for Plant response rating, Blackgrass: 125 g ai/ha, 0 to 100 scale, 0 is no effect, 100 is complete control; for Blackgrass plant response rating (0 to 100 scale, 0 is no effect, 100 is complete control): 500 g ai/ha
In short: as §3

barnyardgrass [2] = experiment: Test A pre-/postemergence herbicide test; assay type: in vivo, Echinochloa crus-galli; conditions: for Plant response rating, Barnyardgrass: 0 to 100 scale
In short: as §2

[3] = 125 g ai/ha, visual rating, 0 no effect, 100 complete control, approximately 10 days, preemergence
[4] = Postemergence, 125 g ai/ha, 0 is no effect, 100 is complete control
[5] = preemergence, 500 g ai/ha, 0 is no effect and 100 is complete control

Compound: COc1ccc(C2CNC(=O)C2C(=O)Nc2cccc(F)c2F)cc1C(F)(F)F (stereo not shown) [Compound 234]
- Plant response rating, Rice (rice; 1000 g ai/ha): 0
- Plant response rating, Corn (corn): 0
- Corn plant response rating (0 to 100 scale, 0 is no effect, 100 is complete control) (corn): 60
- Plant response rating, Ducksalad (ducksalad; 1000 g ai/ha): 85
- Plant response rating, Kochia (kochia; [3]): 20
- Plant response rating, Kochia (kochia; [4]): 0
- Kochia plant response rating (0 to 100 scale, 0 is no effect, 100 is complete control) (kochia; Postemergence, 500 g ai/ha): 30
- Plant response rating, Kochia (kochia; [5]): 50
- Plant response rating, Galium (galium): 30
- Galium plant response rating (0 to 100 scale, 0 is no effect, 100 is complete control) (galium): 50
- Plant response rating, Sedge, Umbrella (sedge, umbrella; 1000 g ai/ha): 0
- Plant response rating, Ragweed (ragweed; [3]): 0
- Plant response rating, Ragweed (ragweed; [4]): 0
- Ragweed plant response rating (0 to 100 scale, 0 is no effect, 100 is complete control) (ragweed; Postemergence, 500 g ai/ha): 0
- Plant response rating, Ragweed (ragweed; [5]): 20
- Plant response rating, Foxtail, Giant (giant foxtail; [3]): 70
- Plant response rating, Foxtail, Giant (giant foxtail; [4]): 40
- Foxtail, Giant plant response rating (0 to 100 scale, 0 is no effect, 100 is complete control) (giant foxtail; Postemergence, 500 g ai/ha): 80
- Plant response rating, Foxtail, Giant (giant foxtail; [5]): 90
- Plant response rating, Wheat (wheat): 0
- Wheat plant response rating (0 to 100 scale, 0 is no effect, 100 is complete control) (wheat): 40
- Plant response rating, Barnyardgrass (barnyardgrass [1]; 1000 g ai/ha): 75
- Plant response rating, Ryegrass, Italian (ryegrass, Italian; [3]): 30
- Plant response rating, Ryegrass, Italian (ryegrass, Italian; [4]): 20
- Ryegrass, Italian plant response rating (0 to 100 scale, 0 is no effect, 100 is complete control) (ryegrass, Italian; Postemergence, 500 g ai/ha): 30
- Plant response rating, Ryegrass, Italian (ryegrass, Italian; [5]): 30
- Plant response rating, Pigweed (pigweed; [3]): 0
- Plant response rating, Pigweed (pigweed; [4]): 0
- Pigweed plant response rating (0 to 100 scale, 0 is no effect, 100 is complete control) (pigweed; Postemergence, 500 g ai/ha): 0
- Plant response rating, Pigweed (pigweed; [5]): 20
- Plant response rating, Blackgrass (blackgrass): 0
- Blackgrass plant response rating (0 to 100 scale, 0 is no effect, 100 is complete control) (blackgrass): 30
- Plant response rating, Barnyardgrass (barnyardgrass [2]; [3]): 60
- Plant response rating, Barnyardgrass (barnyardgrass [2]; [4]): 60
- Barnyardgrass plant response rating (0 to 100 scale, 0 is no effect, 100 is complete control) (barnyardgrass [2]; Postemergence, 500 g ai/ha): 90
- Plant response rating, Barnyardgrass (barnyardgrass [2]; [5]): 90

Compound: O=C1NCC(c2ccc(-c3ccccc3F)cc2)C1C(=O)Nc1cccc(F)c1F (stereo not shown) [Compound 235]
- Plant response rating, Rice (rice; 250 g ai/ha): 0
- Plant response rating, Rice (rice; 1000 g ai/ha): 0
- Plant response rating, Corn (corn): 0
- Corn plant response rating (0 to 100 scale, 0 is no effect, 100 is complete control) (corn): 20
- Plant response rating, Ducksalad (ducksalad; 250 g ai/ha): 0
- Plant response rating, Ducksalad (ducksalad; 1000 g ai/ha): 50
- Plant response rating, Kochia (kochia; [3]): 0
- Plant response rating, Kochia (kochia; [4]): 0
- Kochia plant response rating (0 to 100 scale, 0 is no effect, 100 is complete control) (kochia; Postemergence, 500 g ai/ha): 20
- Plant response rating, Kochia (kochia; [5]): 0
- Plant response rating, Galium (galium): 50
- Galium plant response rating (0 to 100 scale, 0 is no effect, 100 is complete control) (galium): 70
- Plant response rating, Sedge, Umbrella (sedge, umbrella; 250 g ai/ha): 0
- Plant response rating, Sedge, Umbrella (sedge, umbrella; 1000 g ai/ha): 0
- Plant response rating, Ragweed (ragweed; [3]): 0
- Plant response rating, Ragweed (ragweed; [4]): 0
- Ragweed plant response rating (0 to 100 scale, 0 is no effect, 100 is complete control) (ragweed; Postemergence, 500 g ai/ha): 0
- Plant response rating, Ragweed (ragweed; [5]): 0
- Plant response rating, Foxtail, Giant (giant foxtail; [3]): 40
- Plant response rating, Foxtail, Giant (giant foxtail; [4]): 10
- Foxtail, Giant plant response rating (0 to 100 scale, 0 is no effect, 100 is complete control) (giant foxtail; Postemergence, 500 g ai/ha): 50
- Plant response rating, Foxtail, Giant (giant foxtail; [5]): 80
- Plant response rating, Wheat (wheat): 0
- Wheat plant response rating (0 to 100 scale, 0 is no effect, 100 is complete control) (wheat): 0
- Plant response rating, Barnyardgrass (barnyardgrass [1]; 250 g ai/ha): 0
- Plant response rating, Barnyardgrass (barnyardgrass [1]; 1000 g ai/ha): 45
- Plant response rating, Ryegrass, Italian (ryegrass, Italian; [3]): 0
- Plant response rating, Ryegrass, Italian (ryegrass, Italian; [4]): 0
- Ryegrass, Italian plant response rating (0 to 100 scale, 0 is no effect, 100 is complete control) (ryegrass, Italian; Postemergence, 500 g ai/ha): 0
- Plant response rating, Ryegrass, Italian (ryegrass, Italian; [5]): 0
- Plant response rating, Pigweed (pigweed; [3]): 0
- Plant response rating, Pigweed (pigweed; [4]): 0
- Pigweed plant response rating (0 to 100 scale, 0 is no effect, 100 is complete control) (pigweed; Postemergence, 500 g ai/ha): 50
- Plant response rating, Pigweed (pigweed; [5]): 0
- Plant response rating, Blackgrass (blackgrass): 0
- Blackgrass plant response rating (0 to 100 scale, 0 is no effect, 100 is complete control) (blackgrass): 20
- Plant response rating, Barnyardgrass (barnyardgrass [2]; [3]): 0
- Plant response rating, Barnyardgrass (barnyardgrass [2]; [4]): 10
- Barnyardgrass plant response rating (0 to 100 scale, 0 is no effect, 100 is complete control) (barnyardgrass [2]; Postemergence, 500 g ai/ha): 20
- Plant response rating, Barnyardgrass (barnyardgrass [2]; [5]): 60

Compound: O=C1NCC(c2ccc(-c3ccccc3C(F)(F)F)cc2)C1C(=O)Nc1cccc(F)c1F (stereo not shown) [Compound 236]
- Plant response rating, Rice (rice; 1000 g ai/ha): 0
- Plant response rating, Corn (corn): 0
- Corn plant response rating (0 to 100 scale, 0 is no effect, 100 is complete control) (corn): 0
- Plant response rating, Ducksalad (ducksalad; 1000 g ai/ha): 70
- Plant response rating, Kochia (kochia; [3]): 0
- Plant response rating, Kochia (kochia; [4]): 0
- Kochia plant response rating (0 to 100 scale, 0 is no effect, 100 is complete control) (kochia; Postemergence, 500 g ai/ha): 0
- Plant response rating, Kochia (kochia; [5]): 0
- Plant response rating, Galium (galium): 0
- Galium plant response rating (0 to 100 scale, 0 is no effect, 100 is complete control) (galium): 0
- Plant response rating, Sedge, Umbrella (sedge, umbrella; 1000 g ai/ha): 0
- Plant response rating, Ragweed (ragweed; [3]): 0
- Plant response rating, Ragweed (ragweed; [4]): 0
- Ragweed plant response rating (0 to 100 scale, 0 is no effect, 100 is complete control) (ragweed; Postemergence, 500 g ai/ha): 0
- Plant response rating, Ragweed (ragweed; [5]): 30
- Plant response rating, Foxtail, Giant (giant foxtail; [3]): 0
- Plant response rating, Foxtail, Giant (giant foxtail; [4]): 0
- Foxtail, Giant plant response rating (0 to 100 scale, 0 is no effect, 100 is complete control) (giant foxtail; Postemergence, 500 g ai/ha): 0
- Plant response rating, Foxtail, Giant (giant foxtail; [5]): 0
- Plant response rating, Wheat (wheat): 0
- Wheat plant response rating (0 to 100 scale, 0 is no effect, 100 is complete control) (wheat): 0
- Plant response rating, Barnyardgrass (barnyardgrass [1]; 1000 g ai/ha): 40
- Plant response rating, Ryegrass, Italian (ryegrass, Italian; [3]): 0
- Plant response rating, Ryegrass, Italian (ryegrass, Italian; [4]): 0
- Ryegrass, Italian plant response rating (0 to 100 scale, 0 is no effect, 100 is complete control) (ryegrass, Italian; Postemergence, 500 g ai/ha): 0
- Plant response rating, Ryegrass, Italian (ryegrass, Italian; [5]): 50
- Plant response rating, Pigweed (pigweed; [3]): 0
- Plant response rating, Pigweed (pigweed; [4]): 0
- Pigweed plant response rating (0 to 100 scale, 0 is no effect, 100 is complete control) (pigweed; Postemergence, 500 g ai/ha): 0
- Plant response rating, Pigweed (pigweed; [5]): 0
- Plant response rating, Blackgrass (blackgrass): 0
- Blackgrass plant response rating (0 to 100 scale, 0 is no effect, 100 is complete control) (blackgrass): 0
- Plant response rating, Barnyardgrass (barnyardgrass [2]; [3]): 0
- Plant response rating, Barnyardgrass (barnyardgrass [2]; [4]): 0
- Barnyardgrass plant response rating (0 to 100 scale, 0 is no effect, 100 is complete control) (barnyardgrass [2]; Postemergence, 500 g ai/ha): 0
- Plant response rating, Barnyardgrass (barnyardgrass [2]; [5]): 0

Source: US10294202B2, “Pyrrolidinones as herbicides” (FMC Corporation, priority 2013, dated 2019)
